# Biological target: T1, MAGL (Homo sapiens, UniProt Q99685)
# T1 sequence (Q99685 1-303): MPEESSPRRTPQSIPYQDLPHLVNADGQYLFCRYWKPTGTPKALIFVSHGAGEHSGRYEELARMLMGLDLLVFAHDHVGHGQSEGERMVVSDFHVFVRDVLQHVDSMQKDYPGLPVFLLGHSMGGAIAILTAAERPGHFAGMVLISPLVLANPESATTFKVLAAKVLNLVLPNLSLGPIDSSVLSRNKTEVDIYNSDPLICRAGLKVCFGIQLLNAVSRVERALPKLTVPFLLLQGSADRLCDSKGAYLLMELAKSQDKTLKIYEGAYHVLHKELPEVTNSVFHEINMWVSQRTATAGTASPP
# Test: 2-AG assay (MAGL inhibitory activity, hydrolysis of 2-arachidonoylglycerol followed by mass spectrometry)
# Type: biochemical
# Settings: 50 pM MAGL, 8 μM 2-arachidonoylglycerol, 15 min pre-incubation, 30 min incubation at RT
# Description: Compounds were profiled for MAGL inhibitory activity by determining the enzymatic activity by following the hydrolysis of the natural substrate 2-arachidonoylglycerol (2-AG) resulting in arachidonic acid, which can be followed by mass spectrometry. This assay is hereinafter abbreviated “2-AG assay”.
# The 2-AG assay was carried out in 384 well assay plates (PP, Greiner Cat#784201) in a total volume of 20 μL. Compound dilutions were made in 100% DMSO (VWR Chemicals 23500.297) in a polypropylene plate in 3-fold dilution steps to give a final concentration range in the assay from 12.5 μM to 0.8 pM. […] compound dilutions (100% DMSO) were added to 9 μL MAGL in assay buffer (50 mM TRIS (GIBCO, 15567-027), 1 mM EDTA (Fluka, 03690-100 mL), 0.01% (v/v) Tween. After shaking, the plate was incubated for 15 min at RT. To start the reaction, 10 μL 2-arachidonoylglycerol in assay buffer was added. The final concentrations in the assay was 50 pM MAGL and 8 μM 2-arachidonoylglyerol. After shaking and 30 min incubation at RT, the reaction was quenched by the addition of […] of ACN containing 4 μM of d8-arachidonic acid. The amount of arachidonic acid was traced by an online SPE system (Agilent Rapidfire) coupled to a triple quadrupole mass spectrometer (Agilent 6460). A C18 SPE cartridge (G9205A) was used in an ACN/water liquid setup. The mass spectrometer was operated in negative electrospray mode following the mass transitions 303.1→259.1 for arachidonic acid and 311.1→267.0 for d8-arachidonic acid. The activity of the compounds was calculated based on the ratio of intensities [arachidonic acid/d8-arachidonic acid].
row,IC50,Structure (SMILES)
1,2.6 nM,"CC(C)(C)OC(=O)NCCOCCOCCC(=O)NCCOc1cccc(C(c2ccccc2)C2CCN(C(=O)N3CC[C@@H]4OCC(=O)N[C@@H]4C3)CC2)c1 (single isomer, unassigned) [Example 9, tert-Butyl N-[2-[2-[3-[2-[3-[(R or S)-[1-[(4aR,8aS)-3-oxo-4,4a,5,7,8,8a-hexahydropyrido[4,3-b][1,4]oxazine-6-carbonyl]-4-piperidyl]-phenyl-methyl]phenoxy]ethylamino]-3-oxo-propoxy]ethoxy]ethyl]carbamate]"
2,7.2 nM,"O=C(CCOCCNc1ccc([N+](=O)[O-])c2nonc12)NCCOc1cccc(C(c2ccccc2)C2CCN(C(=O)N3CCC4OCC(=O)NC4C3)CC2)c1 (single isomer, unassigned) [Example 18, N-[2-[3-[(R or S)-[1-1(4aR,8aS)-3-Oxo-4,4a,5,7,8,8a-hexahydropyrido[4,3-b][1,4]oxazine-6-carbonyl]-4-piperidyl]-phenyl-methyl]phenoxy]ethyl]-3-12-[(4-nitro-2,1,3-benzoxadiazol-7-yl)amino]ethoxy]propanamide]"
3,18.1 nM,"NCCOCCC(=O)NCCOc1cccc([C@@H](c2ccccc2)C2CCN(C(=O)N3CC[C@@H]4OCC(=O)N[C@@H]4C3)CC2)c1 (single isomer, unassigned) [Example 16, N-[2-[3-[(R or S)-[1-1(4aR,8aS)-3-Oxo-4,4a,5,7,8,8a-hexahydropyrido[4,3-b][1,4]oxazine-6-carbonyl]-4-piperidyl]phenyl-methyl]phenoxy]ethyl]-3-(2-aminoethoxy)propanamide]"
4,0.3 nM,"O=C(CCOCCNC(=O)CCc1ccc2n1[B-](F)(F)[N+]1=C(c3ccc[nH]3)C=CC1=C2)NCCOc1cccc(C(c2ccccc2)C2CCN(C(=O)N3CC[C@@H]4OCC(=O)N[C@@H]4C3)CC2)c1 (single isomer, unassigned) [Example 21, N-[2-[3-[2-[3-[(S or R)-[1-[(4aR,8aS)-3-oxo-4,4a,5,7,8,8a-hexahydropyrido[4,3-b][1,4]oxazine-6-carbonyl]-4-piperidyl]-phenyl-methyl]phenoxy]ethylamino]-3-oxo-propoxy]ethyl]-3-12,2-difluoro-12-(1H-pyrrol-2-yl)-3-aza-1-azonia-2-boranuidatricyclo[7.3.0.03,7]dodeca-1(12),4,6,8,10-pentaen-4-yl]propanamide]"
5,0.2 nM,"CC(C)(C)OC(=O)NCCOc1cccc(C(c2ccccc2)C2CCN(C(=O)N3CC[C@@H]4OCC(=O)N[C@@H]4C3)CC2)c1 (single isomer, unassigned) [Example 5, tert-Butyl N-[2-[3-[(S or R)-[1-[(4aR,8aS)-3-oxo-4,4a,5,7,8,8a-hexahydropyrido[4,3-b][1,4]oxazine-6-carbonyl]-4-piperidyl]-phenyl-methyl]phenoxy]ethyl]carbamate]"
6,0.3 nM,"CC(C)(C)OC(=O)NCCOc1cccc(C(c2ccccc2)C2CCN(C(=O)N3CC[C@@H]4OCC(=O)N[C@@H]4C3)CC2)c1 (single isomer, unassigned) [Example 4, tert-Butyl N-[2-[3-[(R or S)-[1-[(4aR,8aS)-3-oxo-4,4a,5,7,8,8a-hexahydropyrido[4,3-b][1,4]oxazine-6-carbonyl]-4-piperidyl]-phenyl-methyl]phenoxy]ethyl]carbamate]"
7,48.5 nM,"NCCOc1cccc(C(c2ccccc2)C2CCN(C(=O)N3CC[C@@H]4OCC(=O)N[C@@H]4C3)CC2)c1 (single isomer, unassigned) [Example 7, (4aR,8aS)-6-[4-[(R or S)-[3-(2-Aminoethoxy)phenyl]-phenyl-methyl]piperidine-1-carbonyl]-4,4a,5,7,8,8a-hexahydropyrido[4,3-b][1,4]oxazin-3-one]"

# — US20220220373A1, “FLUORESCENT PROBES FOR MONOACYLGLYCEROL LIPASE (MAGL)” (Hoffmann-La Roche Inc., priority 2019, published 2022)
